For test [1], the target named is Norepinephrine transporter (Rattus norvegicus, UniProt Q9WTR4). The test can be described thus: Inhibition of [3H]nisoxetine binding to norepinephrine (NE) transporter.
The target in test [2] is Sodium-dependent dopamine transporter (Rattus norvegicus, UniProt P23977). The test can be described thus: Inhibition of [3H]WIN-35428 binding to dopamine (DA) transporter.
The target of test [3] is Sodium-dependent serotonin transporter (Rattus norvegicus, UniProt P31652). The test can be described thus: Inhibition of [3H]paroxetine binding to 5-hydroxytryptamine (5-HT) transporter.

The term IC50 denotes the midpoint of a concentration-inhibition curve.

Sequence of Sodium-dependent dopamine transporter (P23977 whole entry): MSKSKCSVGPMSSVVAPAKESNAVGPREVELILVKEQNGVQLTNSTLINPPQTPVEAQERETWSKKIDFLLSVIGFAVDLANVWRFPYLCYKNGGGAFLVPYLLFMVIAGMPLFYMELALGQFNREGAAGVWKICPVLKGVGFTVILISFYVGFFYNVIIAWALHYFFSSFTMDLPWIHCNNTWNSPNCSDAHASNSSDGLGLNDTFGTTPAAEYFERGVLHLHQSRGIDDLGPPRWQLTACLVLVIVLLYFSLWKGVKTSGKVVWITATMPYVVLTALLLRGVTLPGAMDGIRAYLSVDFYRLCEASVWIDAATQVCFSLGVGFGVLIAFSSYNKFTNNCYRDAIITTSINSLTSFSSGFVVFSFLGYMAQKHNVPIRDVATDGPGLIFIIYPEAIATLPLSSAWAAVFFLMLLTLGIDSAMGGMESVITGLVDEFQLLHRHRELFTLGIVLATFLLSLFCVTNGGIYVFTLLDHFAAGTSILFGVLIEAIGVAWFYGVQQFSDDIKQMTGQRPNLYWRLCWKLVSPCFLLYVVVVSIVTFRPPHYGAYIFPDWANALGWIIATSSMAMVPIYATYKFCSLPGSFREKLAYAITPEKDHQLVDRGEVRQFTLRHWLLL
Sequence of Norepinephrine transporter (Q9WTR4 whole entry): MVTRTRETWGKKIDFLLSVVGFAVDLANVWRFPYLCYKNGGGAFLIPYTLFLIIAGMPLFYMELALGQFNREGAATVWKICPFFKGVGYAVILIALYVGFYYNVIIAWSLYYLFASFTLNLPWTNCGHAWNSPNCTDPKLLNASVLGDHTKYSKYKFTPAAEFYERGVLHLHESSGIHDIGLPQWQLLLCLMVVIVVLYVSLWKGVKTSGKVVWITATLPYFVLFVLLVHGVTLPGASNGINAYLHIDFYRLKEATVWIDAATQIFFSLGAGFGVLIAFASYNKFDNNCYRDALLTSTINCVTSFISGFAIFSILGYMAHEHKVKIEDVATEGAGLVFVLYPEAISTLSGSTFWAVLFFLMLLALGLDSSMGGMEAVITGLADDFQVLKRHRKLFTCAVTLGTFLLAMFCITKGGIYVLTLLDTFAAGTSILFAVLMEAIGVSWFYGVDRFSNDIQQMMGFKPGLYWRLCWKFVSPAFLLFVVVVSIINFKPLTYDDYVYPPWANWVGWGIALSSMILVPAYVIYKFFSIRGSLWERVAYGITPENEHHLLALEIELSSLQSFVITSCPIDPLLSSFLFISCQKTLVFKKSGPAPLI
Sequence of Sodium-dependent serotonin transporter (P31652 whole entry): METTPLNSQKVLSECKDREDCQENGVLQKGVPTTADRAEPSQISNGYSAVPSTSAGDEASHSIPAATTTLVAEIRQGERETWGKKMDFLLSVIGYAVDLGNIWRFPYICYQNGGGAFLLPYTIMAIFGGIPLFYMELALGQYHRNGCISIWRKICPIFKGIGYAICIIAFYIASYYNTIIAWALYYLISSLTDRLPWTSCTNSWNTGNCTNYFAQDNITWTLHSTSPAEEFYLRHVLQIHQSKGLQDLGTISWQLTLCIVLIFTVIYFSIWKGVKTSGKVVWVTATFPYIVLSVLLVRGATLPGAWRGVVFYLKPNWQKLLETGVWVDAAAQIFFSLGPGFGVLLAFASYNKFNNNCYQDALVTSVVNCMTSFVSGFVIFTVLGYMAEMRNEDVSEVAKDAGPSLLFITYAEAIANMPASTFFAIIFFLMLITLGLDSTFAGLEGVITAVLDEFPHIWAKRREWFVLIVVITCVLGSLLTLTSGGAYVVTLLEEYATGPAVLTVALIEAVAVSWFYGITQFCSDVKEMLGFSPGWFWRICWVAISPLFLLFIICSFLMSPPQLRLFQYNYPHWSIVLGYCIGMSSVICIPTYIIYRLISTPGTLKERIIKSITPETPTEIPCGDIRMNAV

The compound `COC(=O)[C@H]1[C@@H](c2ccc(F)cc2)C[C@H]2CC[C@H]1N2C` yielded an IC50 in test [1] of 834 nM.
For `COC(=O)C1C2CCC(C[C@@H]1c1ccc(F)cc1)N2` (stereo not given in full), the IC50 in test [2] stood at 4.39 nM; in test [1], 18.8 nM; in test [3] it was 68.6 nM.
For the compound `CCc1ccc([C@H]2C[C@H]3CCC(N3)[C@H]2C(=O)OC)cc1`, the IC50 in test [2] is 49.9 nM; in test [1] it was 122 nM; in test [3], 8.13 nM.
For `CC(C)OC(=O)[C@@H]1C2CC[C@H](C[C@@H]1c1ccc(I)cc1)N2`, the IC50 in test [2] amounted to 1.06 nM; in test [1] it was 132 nM; in test [3], 3.59 nM.
As for `COC(=O)[C@@H]1C2CC[C@H](C[C@@H]1c1ccc(I)cc1)N2`, the IC50 worked out at 0.69 nM in test [2], 7.54 nM in test [1] and 0.36 nM in test [3].
For the compound `COC(=O)C1C2CCC(C[C@@H]1OC(=O)c1ccccc1)N2` (stereo not given in full), the IC50 is 206 nM in test [2], 139 nM in test [1] and 127 nM in test [3].
Turning to `COC(=O)C1C2CCC(C[C@@H]1c1ccccc1)N2` (stereo not given in full), the IC50 in test [2] was determined as 30.8 nM; in test [1], 84.5 nM; in test [3], 156 nM.
With `COC(=O)C1C2CC[C@H](C[C@@H]1c1ccc(I)cc1)N2C` (stereo not given in full), the half-inhibitory concentration (IC50) in test [1] was 36 nM; in test [3] it was 4.21 nM.
For `COC(=O)C1C2CCC(C[C@@H]1c1ccc(Cl)cc1)N2` (stereo not given in full), the IC50 in test [2] was determined as 0.62 nM; in test [1], 5.45 nM; in test [3], 4.13 nM.
In the case of `CCc1ccc([C@H]2C[C@H]3CCC(C2C(=O)OC)N3C)cc1` (stereo not given in full), the IC50 in test [2] came to 55 nM; in test [1], 3910 nM; in test [3], 28.4 nM.
Regarding `CC(C)OC(=O)C1C2CC[C@H](C[C@@H]1c1ccc(I)cc1)N2C` (stereo not given in full), the IC50 in test [2] worked out at 0.43 nM; in test [1], 285 nM; in test [3] it was 66.8 nM.

The values are drawn from ChEMBL document CHEMBL1127820 (J Med Chem, 1994).
